Test results reported in patent publication US20130216614A1, “IMMUNOGENIC COMPOSITIONS AND METHODS FOR TREATING NUEROLOGIC DISORDERS” (Glaxosmithkline Biologicals S.A., priority 2010, published 2013).

Test system: monomeric Aβ
Experiment: Immunoblot of monomeric Aβ in brain protein fractions
Type: in vivo, mice
Details: anti Aβ1-16 antibody, vs PBS
Procedure: Proteins from hemi-forebrains were extracted using a modified method of the procedure published by Lesné et al (Lesne et al., 2006). All manipulations were done on ice to minimize protein degradation. One hemi-forebrain was placed in a 1 ml syringe with a 20 G needle. 500 l of buffer A (50 mM Tris-HCl pH 7.6, 0.01% NP-40, 150 mM NaCl, 2 mM EDTA, 0.1% SDS, 1 mM phenylmethylsulfonyl fluoride (PMSF), protease inhibitor cocktail) were added and 10 up and down were made to homogenize the tissue, followed by a 5 minutes centrifugation at 3 000 RPM at 4° C. The supernatant (extracellular proteins enriched fraction) was then collected and frozen at −80° C. […] Protein concentration of each fraction was determined using the Quantipro BCA assay kit (Sigma) according to the manufacturer protocol.
For total Aβ detection, 10-30 μg of extracellular, cytoplasmic and membrane protein fractions were separated on a precast 10-20% SDS polyacrylamide Tris-Tricine gel (Bio-Rad). Separated proteins were then transferred onto polyvinylidene fluoride (PVDF) membranes (PerkinElmer Life and Analytical Sciences) and detected by Western blotting. […]
Quantification was done by determining integrative density of the bands using a gel imaging system (scanner Agfa Arcus II; NIHImage J software version 1.32j) and background values were removed. […] Results are expressed as mean±SEM. […]

3-O-desacyl-4′-monophosphoryl lipid A [3D MPL]
monomeric Aβ in extra-cellular enriched fractions from brains: reduction
